This assay deals with T1, human Cereblon WT GST-tagged protein (Homo sapiens, UniProt Q96SW2).
T1 construct: purchased CISBIO 64BDCRBNPEH
T1 sequence (Q96SW2 whole entry): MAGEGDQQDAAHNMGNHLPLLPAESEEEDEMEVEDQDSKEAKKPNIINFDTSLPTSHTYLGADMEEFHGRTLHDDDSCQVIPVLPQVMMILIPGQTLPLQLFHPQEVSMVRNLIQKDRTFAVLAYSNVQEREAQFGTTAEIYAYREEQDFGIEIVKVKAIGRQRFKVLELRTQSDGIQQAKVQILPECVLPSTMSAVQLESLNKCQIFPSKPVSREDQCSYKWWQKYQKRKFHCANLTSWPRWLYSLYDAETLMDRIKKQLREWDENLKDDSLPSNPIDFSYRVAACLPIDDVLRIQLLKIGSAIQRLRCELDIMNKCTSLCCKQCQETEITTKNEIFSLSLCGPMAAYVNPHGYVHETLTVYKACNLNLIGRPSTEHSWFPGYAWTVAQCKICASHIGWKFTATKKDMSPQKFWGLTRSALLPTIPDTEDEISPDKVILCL
Put plainly: CRBN binding, HTRF CEREBLON BINDING kit. The conditions noted are these: CRBN binding, HTRF CEREBLON BINDING kit. The essentials: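 HTRF competition in which test compounds displace a Thalidomide-Re tracer from GST-tagged human Cereblon WT, detected with a GST Eu antibody. Incubation lasted 3 hours at room temperature, with emission read at 620 and 665 nm. Inhibition rate was derived from 665/620 ratios relative to blank and solvent control wells.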
For `COc1cc(N2CCN(Cc3cccc(N4CCC(=O)NC4=O)c3)CC2)ccc1Nc1ncc(Cl)c(Nc2ccccc2P(C)(C)=O)n1` [GT-07348, 1-(3-((4-(4-((5-chloro-4-((2-(dimethylphosphoryl)phenyl)amino)pyrimidin-2-yl)amino)-3-methoxyphenyl)piperazin-1-yl)methyl)phenyl)dihydropyrimidine-2,4(1H,3H)-dione], the IC50 is 1000 to 1900 nM. To `Cc1cc(Nc2ncc(Cl)c(Nc3ccccc3S(=O)(=O)C(C)C)n2)c(OC(C)C)cc1C1CCN(Cc2ccc(C3CCC(=O)NC3=O)cc2)CC1` (centres unmarked) [GT-07364, 3-(4-((4-(4-((5-chloro-4-((2-(isopropylsulfonyl)phenyl)amino)pyrimidin-2-yl)amino)-5-isopropoxy-2-methylphenyl)piperidin-1-yl)methyl)phenyl)piperidine-2,6-dione] belongs 500 to 1000 nM; to `O=C1CCN(c2cc(CN3CCN(c4ccc(-c5cc(F)c6c(c5)C(=O)N(C(C(=O)Nc5nccs5)c5ncn7c5CCC7)C6)cc4)CC3)ccn2)C(=O)N1` (centres unmarked) [GT-07379, 2-(6,7-dihydro-5H-pyrrolo[1,2-c]imidazol-1-yl)-2-(6-(4-(4-((2-(2,4-dioxotetrahydropyrimidin-1(2H)-yl)pyridin-4-yl)methyl)piperazin-1-yl)phenyl)-4-fluoro-1-oxoisoindolin-2-yl)-N-(thiazol-2-yl)acetamide], less than 500 nM; to `O=C1CCN(c2cncc(CN3CCN(c4ccc(-c5cc(F)c6c(c5)C(=O)N(C(C(=O)Nc5nccs5)c5ncn7c5CCC7)C6)cc4)CC3)c2)C(=O)N1` (centres unmarked) [GT-07380, 2-(6,7-dihydro-5H-pyrrolo[1,2-c]imidazol-1-yl)-2-(6-(4-(4-((5-(2,4-dioxotetrahydropyrimidin-1(2H)-yl)pyridin-3-yl)methyl)piperazin-1-yl)phenyl)-4-fluoro-1-oxoisoindolin-2-yl)-N-(thiazol-2-yl)acetamide], less than 500 nM. `O=C1CCC(c2ccc(CN3CCN(c4ccc(-c5cc(F)c6c(c5)C(=O)N(C(C(=O)Nc5nccs5)c5ncn7c5CCC7)C6)cc4)CC3)nc2)C(=O)N1` (centres unmarked) [GT-07381, 2-(6,7-dihydro-5H-pyrrolo[1,2-c]imidazol-1-yl)-2-(6-(4-(4-((5-(2,6-dioxopiperidin-3-yl)pyridin-2-yl)methyl)piperazin-1-yl)phenyl)-4-fluoro-1-oxoisoindolin-2-yl)-N-(thiazol-2-yl)acetamide] registered a half-maximal inhibitory concentration (IC50) of less than 500 nM. For `CN(Cc1cc(N2CCC(=O)NC2=O)ncc1F)C1CCN(c2ccc(-c3cc(F)c4c(c3)C(=O)N(C(C(=O)Nc3nccs3)c3ncn5c3CCC5)C4)cc2)CC1` (centres unmarked) [GT-07382, 2-(6,7-dihydro-5H-pyrrolo[1,2-c]imidazol-1-yl)-2-(6-(4-(4-(((2-(2,4-dioxotetrahydropyrimidin-1(2H)-yl)-5-fluoropyridin-4-yl)methyl)(methyl)amino)piperidin-1-yl)phenyl)-4-fluoro-1-oxoisoindolin-2-yl)-N-(thiazol-2-yl)acetamide], the IC50 fell in the range of 500 to 1000 nM.

In the case of `CN(Cc1ccnc(N2CCC(=O)NC2=O)c1)C1CCN(c2ccc(-c3cc(F)c4c(c3)C(=O)N(C(C(=O)Nc3nccs3)c3ncn5c3CCC5)C4)cc2)CC1` (centres unmarked) [GT-07383, 2-(6,7-dihydro-5H-pyrrolo[1,2-c]imidazol-1-yl)-2-(6-(4-(4-(((2-(2,4-dioxotetrahydropyrimidin-1(2H)-yl)pyridin-4-yl)methyl)(methyl)amino)piperidin-1-yl)phenyl)-4-fluoro-1-oxoisoindolin-2-yl)-N-(thiazol-2-yl)acetamide], the IC50 was in the range of 500 to 1000 nM.

Compound `CN(Cc1cncc(N2CCC(=O)NC2=O)c1)C1CCN(c2ccc(-c3cc(F)c4c(c3)C(=O)N(C(C(=O)Nc3nccs3)c3ncn5c3CCC5)C4)cc2)CC1` (centres unmarked) [GT-07384, 2-(6,7-dihydro-5H-pyrrolo[1,2-c]imidazol-1-yl)-2-(6-(4-(4-(((5-(2,4-dioxotetrahydropyrimidin-1(2H)-yl)pyridin-3-yl)methyl)(methyl)amino)piperidin-1-yl)phenyl)-4-fluoro-1-oxoisoindolin-2-yl)-N-(thiazol-2-yl)acetamide] returned an IC50 of less than 500 nM.

On to `CN(Cc1ccc(C2CCC(=O)NC2=O)cn1)C1CCN(c2ccc(-c3cc(F)c4c(c3)C(=O)N(C(C(=O)Nc3nccs3)c3ncn5c3CCC5)C4)cc2)CC1` (centres unmarked) [GT-07385, 2-(6,7-dihydro-5H-pyrrolo[1,2-c]imidazol-1-yl)-2-(6-(4-(4-(((5-(2,6-dioxopiperidin-3-yl)pyridin-2-yl)methyl)(methyl)amino)piperidin-1-yl)phenyl)-4-fluoro-1-oxoisoindolin-2-yl)-N-(thiazol-2-yl)acetamide], for which the concentration for half-maximal inhibition (IC50) was less than 500 nM. The compound `O=C1CCN(c2cc(CN3C[C@H]4C[C@@H]3CN4c3ccc(-c4cc(F)c5c(c4)C(=O)N(C(C(=O)Nc4nccs4)c4ncn6c4CCC6)C5)cc3)c(F)cn2)C(=O)N1` (stereo partly drawn) [GT-07386, 2-(6,7-dihydro-5H-pyrrolo[1,2-c]imidazol-1-yl)-2-(6-(4-((1R,4R)-5-((2-(2,4-dioxotetrahydropyrimidin-1(2H)-yl)-5-fluoropyridin-4-yl)methyl)-2,5-diazabicyclo[2.2.1]heptan-2-yl)phenyl)-4-fluoro-1-oxoisoindolin-2-yl)-N-(thiazol-2-yl)acetamide] gave an IC50 of 1000 to 1900 nM. Then `O=C1CCN(c2cc(CN3C[C@H]4C[C@@H]3CN4c3ccc(-c4cc(F)c5c(c4)C(=O)N(C(C(=O)Nc4nccs4)c4ncn6c4CCC6)C5)cc3)ccn2)C(=O)N1` (stereo partly drawn) [GT-07387, 2-(6,7-dihydro-5H-pyrrolo[1,2-c]imidazol-1-yl)-2-(6-(4-((1R,4R)-5-((2-(2,4-dioxotetrahydropyrimidin-1(2H)-yl)pyridin-4-yl)methyl)-2,5-diazabicyclo[2.2.1]heptan-2-yl)phenyl)-4-fluoro-1-oxoisoindolin-2-yl)-N-(thiazol-2-yl)acetamide], with 1000 to 1900 nM.

`O=C1CCN(c2cncc(CN3C[C@H]4C[C@@H]3CN4c3ccc(-c4cc(F)c5c(c4)C(=O)N(C(C(=O)Nc4nccs4)c4ncn6c4CCC6)C5)cc3)c2)C(=O)N1` (stereo partly drawn) [GT-07388, 2-(6,7-dihydro-5H-pyrrolo[1,2-c]imidazol-1-yl)-2-(6-(4-((1R,4R)-5-((5-(2,4-dioxotetrahydropyrimidin-1(2H)-yl)pyridin-3-yl)methyl)-2,5-diazabicyclo[2.2.1]heptan-2-yl)phenyl)-4-fluoro-1-oxoisoindolin-2-yl)-N-(thiazol-2-yl)acetamide] displayed an IC50 of less than 500 nM. Compound `O=C1CCC(c2ccc(CN3C[C@H]4C[C@@H]3CN4c3ccc(-c4cc(F)c5c(c4)C(=O)N(C(C(=O)Nc4nccs4)c4ncn6c4CCC6)C5)cc3)nc2)C(=O)N1` (stereo partly drawn) [GT-07389, 2-(6,7-dihydro-5H-pyrrolo[1,2-c]imidazol-1-yl)-2-(6-(4-((1R,4R)-5-((5-(2,6-dioxopiperidin-3-yl)pyridin-2-yl)methyl)-2,5-diazabicyclo[2.2.1]heptan-2-yl)phenyl)-4-fluoro-1-oxoisoindolin-2-yl)-N-(thiazol-2-yl)acetamide] returned a half-inhibitory concentration (IC50) of less than 500 nM.

`O=C1CCC(c2cc(CN3C[C@H]4C[C@@H]3CN4c3ccc(-c4cc(F)c5c(c4)C(=O)N(C(C(=O)Nc4nccs4)c4ncn6c4CCC6)C5)cc3)ccn2)C(=O)N1` (stereo partly drawn) [GT-07390, 2-(6,7-dihydro-5H-pyrrolo[1,2-c]imidazol-1-yl)-2-(6-(4-((1R,4R)-5-((2-(2,6-dioxopiperidin-3-yl)pyridin-4-yl)methyl)-2,5-diazabicyclo[2.2.1]heptan-2-yl)phenyl)-4-fluoro-1-oxoisoindolin-2-yl)-N-(thiazol-2-yl)acetamide] gave an IC50 of 500 to 1000 nM.

(Values after patent US20260274829A1, “NEW E3 UBIQUITIN LIGASE LIGAND, PROTEIN DEGRADATION AGENT AND USE THEREOF” (GLUETACS THERAPEUTICS (SHANGHAI) CO., LTD., priority 2023, published 2026).)
